# Results as given in a melting point compilation (Tetko et al.; mined from patent text by program, amines drawn as free bases though some values may be those of a salt).
row,SMILES,melting point [°C]
1,Cc1oc2c(Br)cccc2c1C,33
2,O=C(O)c1ccc2nc(S)[nH]c2c1,> 250
3,COc1ccc(N(C(=O)CN2C(=O)C(Cc3n[nH]c4ccccc34)(OC)C(=O)N(c3cccnc3)c3ccccc32)C(C)C)cc1 (stereo not drawn),207 to 209
4,N#Cc1ccc(C#CCN2CCc3nc(N)sc3CC2)cc1,174 to 176
5,Cc1[nH]c2ncnc(Nc3cccc(F)c3)c2c1C,245 to 255
6,Cc1ccc(-n2nc(C(N)=O)nc2-c2ccccc2)cc1C,169 to 170
7,CN(C)c1ccc2c(c1)C(C)(C)C1(C=Cc3cc([N+](=O)[O-])ccc3S1)N2C (stereo not drawn),166 to 167
8,O=C(NCc1ccccn1)Nc1cc(NC(=O)c2ccccn2)ccn1,206 to 207
9,N=C(NS(=O)(=O)C=Cc1ccc(Cl)c(Cl)c1)c1ccccc1,144 to 146
10,CC(=O)NC[C@H]1CN(c2ccc(N=C=S)c(F)c2)C(=O)O1,172 to 176
11,COc1c(S(N)(=O)=O)c(C)nn1C,144 to 146
12,O=S(=O)(O)c1ccc(O)c(O)c1,254 to 255
13,Nc1nc2c(s1)CCCc1ccc(F)cc1-2,270
14,CCOC(=O)N1C(=O)C2(COc3cc4c(cc32)OCCO4)c2ccccc21 (stereo not drawn),198 to 200
15,COC(=O)c1cnn(C)c1S(=O)(=O)NC(=O)Nc1nc(C)cc(OC)n1,183 to 184
16,O=CC=C(c1ccccc1F)c1ccccc1F,75 to 77
17,NS(=O)(=O)c1cc2[nH]c(C(F)F)nc2cc1Cl,233 to 235
18,Cc1nc(N2CCN(Cc3ccc(F)cc3)C2=O)sc1-c1nn[nH]n1,145 to 149
19,O=C(OCC1CC1)c1ncn2c1[C@@H]1CCCN1C(=O)c1c(Cl)cccc1-2,195 to 196

row,SMILES,melting point [°C]
1,Cc1cc(Oc2c(Cl)cc(C(F)(F)F)cc2Cl)nn1C(=O)NCCN1CCOCC1,99 to 101
2,CCNS(=O)(=O)c1ccc(N)c(C(=O)N2CCN(C)CC2)c1,175 to 177
3,c1cnn(-c2cc(-n3cccn3)ncn2)c1,133 to 134
4,C=CCn1c(=O)n(CCC)c(=O)c2[nH]c(C34CC5CC(CC3C5)C4)nc21,196 to 197
5,N=C(NC(=O)Nc1ccccc1[N+](=O)[O-])c1ccccc1,144 to 146
6,CCCOC1(C=O)C=CCC(OC)(N2CCC(c3noc4cc(F)ccc34)CC2)C1O (stereo not drawn),107 to 108
7,Cc1ccc(-c2c(O)nc(S)nc2O)cc1,290 to 292
8,CC(=O)c1ccc2c(c1)Sc1cc(Br)ccc1O2,143 to 145
9,Cc1c(C)c(N2C(=O)c3cc(Cl)c(Cl)cc3C2=O)c(C)c2c1OC(C)(C)C2c1ccccc1 (stereo not drawn),178 to 181
10,CCN(C(=O)N1CCN(c2cc(C)cc(C)c2)CC1)c1nc(C)c(C)nc1OC,68 to 70
11,CCCc1nc2c(N)nc3ccccc3c2n1CC(OCC)OCC,148 to 150
12,CCCc1nn(C)c2c(=O)[nH]c(-c3ccc(OC)c(OC)c3)nc12,210 to 212
13,CC(=O)C(=O)Nc1ccc(C#N)c(C(F)(F)F)c1,147 to 148
14,CC(C)(C)C(=O)C(Cl)C(=O)Nc1cc(OC(=O)c2cc(C(C)(C)C)c(O)c(C(C)(C)C)c2)ccc1Cl (stereo not drawn),185 to 187
15,O=C1Nc2ccc(F)cc2C1c1ncnc2c1cnn2C1CCCC1 (stereo not drawn),254 to 257
16,NCC(=O)NC(Cc1ccncc1)c1ccccc1 (stereo not drawn),145 to 147
17,O=C(NNC(=O)C(O)c1cccc(O)c1)c1c(O)cc(O)cc1Cl (stereo not drawn),230 to 231
18,NNC(=O)OCC1c2ccccc2-c2ccccc21,150 to 153
19,CNc1nc2ncnn2c(NC2CCCC2)c1-c1ccccc1,158 to 160

row,SMILES,melting point [°C]
1,COC(=O)/C=C(C)/C=C/C1(c2cc3c(cc2C)C(C)(C)CCC3(C)C)CC=CS1 (stereo not drawn),152 to 153
2,CCCn1c([N+](=O)[O-])cnc1-c1cnc(N)s1,234 to 236
3,CSC(SC)=C1C(=O)OC(C)(C)OC1=O,114 to 118
4,O=C1c2ccc(N3CCCC3)c3cc([N+](=O)[O-])cc(c23)C(=O)N1O,290 to 291
5,CCCCOc1cc(C)c(NC(=O)C(C)Br)c(C)c1 (stereo not drawn),132 to 134
6,CON=C1C=CC=CC1CC(=O)OC (stereo not drawn),96 to 97
7,O=[N+]([O-])CS(=O)(=O)c1c(F)c(F)cc(F)c1F,86 to 87
8,CCN(CC)c1ccc(S(=O)(=O)N2CC(O)CC2=S)cc1 (stereo not drawn),149 to 150
9,CC(=O)Nc1cc(N2CCCCC2)nc(=N)n1O,204 to 205
10,CCc1nn(CC(N)=O)c(CC)c1Oc1cc(Cl)cc(Cl)c1,164 to 166
11,CN1CC[C@@H]2CC(=O)c3c(F)cc(F)cc3[C@@H]2C1 (relative stereo),> 220
12,COc1cc(-n2c(C)c(CC(=O)O)c3cc(C)ccc32)nc(OC)n1,197 to 198
13,COc1ccc(C(=O)Cn2cc[nH]c2=O)cc1OC1CCCC1,201
14,CC(=O)N[C@H](Cc1ccc(C(=O)c2ccccc2)cc1)C(=O)O,186 to 187
15,CCOC(=O)C1=Cc2cc(Cl)ccc2NC1C(F)(F)F (stereo not drawn),133 to 134
16,O=C1C(=O)c2ccccc2C2=C1SCC1(CCCCC1)O2,194 to 195
17,S=c1cc(-c2cnccn2)ss1,196
18,C=CCOC(=O)C1=C(C)NC(C)=C(C(=O)OCC=C)C1c1ccccc1Cl,98 to 99

# Second part, the compound after the results:
row,melting point [°C],SMILES
1,231 to 234,CC(C)(C)C(NC(=O)c1ccc(Cl)cc1)Nc1c(Nc2cccnc2F)c(=O)c1=O (stereo not drawn)
2,143 to 145,O=C(N[C@@H](Cc1ccccc1)C(=O)O)OCC1c2ccccc2Oc2ccccc21
3,256 to 257,CCCCCCOc1ccc(C(=O)Nc2ccc(C(=O)O)cc2)cc1C12CC3CC(CC(C3)C1)C2
4,228 to 231,Cc1ccccc1NC(=O)c1ccc(C(=O)N2Cc3cccn3Cc3ccccc32)cc1
5,203,CCCCc1nc2sccc2n1Cc1ccc(-c2ccccc2C(=O)O)cc1
6,81 to 83,C[C@@H](c1ccc(/C=C/c2ccnn2C)cc1)[C@](O)(Cn1cncn1)c1ccc(F)cc1F
7,> 290,O=C(O)c1cccc2ncc(-c3ccccc3)cc12
8,184 to 185,CCCn1c(=O)c2c(N)n(CC(=O)c3cccc(OC)c3)nc2n(Cc2ccccc2)c1=O
9,131,COc1ccc(-c2cc3ccccc3[nH]2)c(C)c1
10,210,COc1ccc(N2CCOCC2)c2sc(C(=O)NCC(=O)c3csc4ccccc34)nc12
11,45,c1ccc(OCCSCc2nnc(-c3ccc(OCCCCN4CCCC4)cc3)o2)cc1
12,129 to 130,CCCCCCCCCCCC(=O)c1c[nH]c2ccccc12
13,> 250,CCOC(=O)Cn1c(=O)c(=O)[nH]c2ccc3ccc(N)cc3c21
14,209 to 210,CSc1ccc(-c2coc3ncc(-c4nnc(C)o4)cc23)cc1
15,148 to 150,COC(=O)[C@@H]1C(=O)c2cc(OCc3ccccc3)ccc2[C@H]1c1ccc2c(c1)OCO2 (racemic)
16,144 to 145,Cc1cc(OCc2cn(-c3ccc(C(F)(F)F)cn3)nc2C)ccc1CCC(=O)O
17,64 to 65,CCOC(=O)CCc1ccc(OCc2ccc(OCc3nc(-c4ccccc4)oc3C)cc2)cc1OCC
18,101 to 102,OCc1cccc(-c2ncc(OCCN3CCOCC3)cn2)c1
19,173 to 174,CCOC(=O)N1CCN(c2cn(Cc3ccccc3)c3cc(OC)ccc3c2=O)CC1
20,110 to 112,"COCN1C(C)=C(C(=O)OC)C(c2ccccc2C(F)(F)F)C(C(=O)OCOC(=O)C(C)(C)C)=C1C (single isomer, unassigned; (+))"
21,168 to 170,O=S(=O)(CCCCCOc1ccc(C2=C(c3ccc(O)cc3)CCCc3cc(O)ccc32)cc1)CCCC(F)(F)C(F)(F)F

row,melting point [°C],SMILES
1,146,COc1ccc2cccc(C=CN3C(=O)c4ccccc4C3=O)c2c1
2,179 to 185,Cn1nc(-c2c(F)cccc2Cl)nc1-c1ccc(Cc2ccc(Cl)c(Cl)c2)c(Cl)c1
3,167,CCOC(=O)c1c(SC)n(-c2ccc(F)cc2)c2cc(F)c(F)cc2c1=O
4,187 to 190,O=C(O)COc1c(-c2cccc(Cl)c2)cc(C(=O)NCCCCc2ccccc2)cc1-c1cccc(C(F)(F)F)c1
5,163 to 164,CC1(C)CC(=C(c2ccc(O)cc2)c2ccc(OCC(=O)O)cc2)CC(C)(C)C1
6,138 to 139,O=C(O)[C@H](Cc1ccc(C(F)(F)F)cc1)[C@@H](O)c1ccccc1 (racemic)
7,255,Oc1nc(-c2ccc(Cl)cc2)nc2c1CCCC2
8,176 to 178,CC(C(N)=O)c1ccc2c(c1)C(=O)Cc1ccc(F)cc1S2 (stereo not drawn)
9,155 to 156,Cc1nc2ccc(N3CCN(CCCC(=O)c4ccc(F)cc4)CC3)nc2nc1C
10,100 to 104,OC1(c2cccn2Cc2ccccc2F)CCN(CCCc2noc3cc(F)ccc23)CC1
11,133 to 135,Cc1ccc(S(=O)(=O)NCCc2ccc(C(=O)CN3CCN(c4ccncc4)CC3)cc2)cc1
12,257,COC(=O)Nc1ccc(CC(=O)Nc2cccc3c2C(=O)c2c-3n[nH]c2-c2ccc(OC)cc2)cc1
13,158 to 160,C=C(C)COc1ccc2c(C)cc(=O)oc2c1C(=O)C=Cc1ccccc1
14,157,CCN(CC)CCCCC1CCN(CCNC(=O)N2c3cc(Cl)ccc3C(=O)Nc3cccnc32)CC1
15,129 to 130,COc1cccc(C(=O)OCC2(COC(=O)c3cccc(OC)c3)c3ccccc3-c3ccccc32)c1
16,270 to 271,CCCOc1ccc(S(=O)(=O)N2CCN(C)CC2)cc1-c1nc2cc(N)c([N+](=O)[O-])cc2c(=O)[nH]1
17,96 to 97,CCCCOc1c(CO)n(CC2CC2)c(=O)c2ccc(OCc3ccccc3)cc12
18,156 to 162,CCOC(=O)c1ccc(NC(=O)Oc2ccccc2)cc1
19,163 to 166,CCOP(=O)(CC(=O)NNc1nc2ccc(C(F)(F)F)cc2n(OCc2ccccc2)c1=O)OCC
20,183 to 186,Cc1ccc(-c2ccc(C(=O)CCC(=O)O)cc2)cc1
21,143 to 144,O=C1N[C@H](Cc2ccc(C(F)(F)F)cc2)[C@H](c2cccc(F)c2)O1 (racemic)
